The text below walks through data of patent publication US9617246B2, “Thioether-piperidinyl orexin receptor antagonists” (MERCK SHARP & DOHME CORP., priority 2013, dated 2017).

The target in test [1] is hOX1R (Homo sapiens, UniProt O43613). Nature of the test: FLIPR Ca2+ Flux Assay, orexin-1 receptor. The class given is cell-based. Conditions: CHO cells, agonist 70 pM Ala-6,12 human orexin-A.
In test [2] the target is human orexin-2 receptor (Homo sapiens (Human), UniProt O43614). Description: FLIPR Ca2+ Flux Assay, orexin-2 receptor. It is filed as cell-based. Particulars: CHO cells, agonist 70 pM Ala-6,12 human orexin-A; read-out: hOX2R FLIPR IC50. As for the experimental part:
The utility of the compounds in accordance with the present invention as orexin receptor OX1R and/or OX2R antagonists may be readily determined without undue experimentation by methodology well known in the art, including the “FLIPR Ca^2+ Flux Assay” (Okumura et al., Biochem. Biophys. Res. Comm. 280:976-981, 2001). In a typical experiment the OX1 and OX2 receptor antagonistic activity of the compounds of the present invention was determined in accordance with the following experimental method. For intracellular calcium measurements, Chinese hamster ovary (CHO) cells expressing the rat orexin-1 receptor or the human orexin-2 receptor, are grown in Iscove's modified DMEM containing 2 mM L-glutamine, […], 1% hypoxanthine-thymidine supplement, 100 U/ml penicillin, 100 μg/ml streptomycin and 10% heat-inactivated fetal calf serum (FCS). The cells are seeded at 20,000 cells/well into Becton-Dickinson black 384-well clear bottom sterile plates coated with poly-D-lysine. All reagents were from GIBCO-Invitrogen Corp. The seeded plates are incubated overnight at 37° C. and 5% CO2. Ala-6,12 human orexin-A as the agonist is prepared as a 1 mM stock solution in 1% bovine serum albumin (BSA) and diluted in assay buffer (HBSS containing 20 mM HEPES, 0.1% BSA and 2.5 mM probenecid, pH7.4) for use in the assay at a final concentration of 70 pM. Test compounds are prepared as 10 mM stock solution in DMSO, then diluted in 384-well plates, first in DMSO, then assay buffer. On the day of the assay, cells are washed 3 times with 100 μl assay buffer and then incubated for 60 min (37° C., 5% CO2) in 60 μl assay buffer containing 1 μM Fluo-4AM ester, 0.02% pluronic acid, and 1% BSA. The dye loading solution is then aspirated and cells are washed 3 times with 100 μl assay buffer. 30 μl of that same buffer is left in each well. Within the Fluorescent Imaging Plate Reader (FLIPR, Molecular Devices), test compounds are added to the plate in a volume of 25 μl, incubated for 5 min and finally 25 μl of agonist is added. Fluorescence is measured for each well at 1 second intervals for 5 minutes and the height of each fluorescence peak is compared to the height of the fluorescence peak induced by 70 pM Ala-6,12 orexin-A with buffer in place of antagonist. For each antagonist, IC50 value (the concentration of compound needed to inhibit 50% of the agonist response) is determined. Alternatively, compound potency can be assessed by a radioligand binding assay (described in Bergman et. al. Bioorg. Med. Chem. Lett. 2008, 18, 1425-1430) in which the inhibition constant (Ki) is determined in membranes prepared from CHO cells expressing either the OX1 or OX2 receptor. The intrinsic orexin receptor antagonist activity of a compound which may be used in the present invention may be determined by these assays.
On the technique in general: Calcium flux is commonly read through the fluorescence of an indicator in the cells.

SMILES strings stand for the structures.

Sequence of human orexin-2 receptor (O43614 whole entry): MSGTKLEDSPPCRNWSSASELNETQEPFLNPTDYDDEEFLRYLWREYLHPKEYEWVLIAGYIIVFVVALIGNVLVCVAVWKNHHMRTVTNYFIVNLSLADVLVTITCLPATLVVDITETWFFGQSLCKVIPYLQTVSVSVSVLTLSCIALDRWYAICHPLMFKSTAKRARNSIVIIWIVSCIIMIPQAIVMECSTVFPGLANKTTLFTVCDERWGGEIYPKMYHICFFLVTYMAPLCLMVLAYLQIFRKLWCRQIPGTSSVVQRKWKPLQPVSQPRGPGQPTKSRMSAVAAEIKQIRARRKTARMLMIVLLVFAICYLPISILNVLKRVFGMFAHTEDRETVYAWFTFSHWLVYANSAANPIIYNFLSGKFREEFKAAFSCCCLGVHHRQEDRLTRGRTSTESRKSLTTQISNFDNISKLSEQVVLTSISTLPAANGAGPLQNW

For `COC(=O)c1c(C)ccnc1S[C@@H]1CC[C@@H](C)N(C(=O)c2ccccc2-n2nccn2)C1` [Example 1, Methyl 4-methyl-2-{[(3R,6R)-6-methyl-1-{[2-(2H-1,2,3-triazol-2-yl)phenyl]carbonyl}-piperidin-3-yl]sulfanyl}pyridine-3-carboxylate], the half-maximal inhibitory concentration (IC50) is 27.8 nM in test [1] and 22.2 nM in test [2].
The like results for `Cc1cc(C#N)cc(S[C@@H]2CC[C@@H](C)N(C(=O)c3ccccc3-n3nccn3)C2)n1` [Example 2, 2-methyl-6-{[(3R,6R)-6-methyl-1-{[2-(2H-1,2,3-triazol-2-yl)phenyl]carbonyl}piperidin-3-yl]sulfanyl}pyridine-4-carbonitrile] were, in that order, 1540 nM and 82.9 nM.
Turning to `COC(=O)c1cccnc1S[C@@H]1CC[C@@H](C)N(C(=O)c2ccccc2-n2nccn2)C1` [Example 3, methyl 2-{[(3R,6R)-6-methyl-1-{[2-(2H-1,2,3-triazol-2-yl)phenyl]carbonyl}piperidin-3-yl]sulfanyl}pyridine-3-carboxylate], the IC50 in test [1] amounted to 48.1 nM; in test [2], 23.9 nM.
For `COC(=O)c1c(I)ccnc1S[C@@H]1CC[C@@H](C)N(C(=O)c2ccccc2-n2nccn2)C1` [Example 4, methyl 4-iodo-2-{[(3R,6R)-6-methyl-1-{[2-(2H-1,2,3-triazol-2-yl)phenyl]carbonyl}piperidin-3-yl]sulfanyl}pyridine-3-carboxylate] the same measures were 54.4 nM and 23.6 nM.
For `C[C@@H]1CC[C@@H](Sc2ccccn2)CN1C(=O)c1ccccc1-n1nccn1` [Example 7, 2-{[(3R,6R)-6-methyl-1-{[2-(2H-1,2,3-triazol-2-yl)phenyl]carbonyl}piperidin-3-yl]sulfanyl}pyridine] the same measures were 1630 nM and 179 nM.
The like results for `C[C@@H]1CC[C@@H](Sc2ccc(C(F)(F)F)cn2)CN1C(=O)c1ccccc1-n1nccn1` [Example 8, 2-{[(3R,6R)-6-methyl-1-{[2-(2H-1,2,3-triazol-2-yl)phenyl]carbonyl}piperidin-3-yl]sulfanyl}-5-(trifluoromethyl)pyridine] were, in that order, 596 nM and 322 nM.
Consider `C[C@@H]1CC[C@@H](Sc2cc(C#N)ccn2)CN1C(=O)c1ccccc1-n1nccn1` [Example 9, 2-{[(3R,6R)-6-methyl-1-{[2-(2H-1,2,3-triazol-2-yl)phenyl]carbonyl}piperidin-3-yl]sulfanyl}pyridine-4-carbonitrile], for which the IC50 came to 1410 nM in test [1] and 13.5 nM in test [2].
The like results for `Cc1ccnc(S[C@@H]2CC[C@@H](C)N(C(=O)c3ccccc3-n3nccn3)C2)c1C#N` [Example 10, 4-methyl-2-{[(3R,6R)-6-methyl-1-{[2-(2H-1,2,3-triazol-2-yl)phenyl]carbonyl}piperidin-3-yl]sulfanyl}pyridine-3-carbonitrile] were, in that order, 634 nM and 24.2 nM.
For `Cc1ccnc(S[C@@H]2CC[C@@H](C)N(C(=O)c3ccccc3-n3nccn3)C2)c1` [Example 11, 4-methyl-2-{[(3R,6R)-6-methyl-1-{[2-(2H-1,2,3-triazol-2-yl)phenyl]carbonyl}piperidin-3-yl]sulfanyl}pyridine] the same measures were 440 nM and 20 nM.
For `COC(=O)c1ccnc(S[C@@H]2CC[C@@H](C)N(C(=O)c3ccccc3-n3nccn3)C2)c1` [Example 13, methyl 2-{[(3R,6R)-6-methyl-1-{[2-(2H-1,2,3-triazol-2-yl)phenyl]carbonyl}piperidin-3-yl]sulfanyl}pyridine-4-carboxylate] the same measures were 6310 nM and 297 nM.
Take `COc1ccc(C(=O)N2C[C@H](Sc3cc(C#N)ccn3)CC[C@H]2C)c(-n2nccn2)n1` [Example 14, 2-{[(3R,6R)-1-{[6-Methoxy-2-(2H-1,2,3-triazol-2-yl)pyridin-3-yl]carbonyl}-6-methylpiperidin-3-yl]sulfanyl}pyridine-4-carbonitrile]: the IC50 in test [1] amounted to 10000 nM; in test [2] it was 149 nM.
The like results for `C[C@@H]1CC[C@@H](Sc2cc(C#N)ccn2)CN1C(=O)c1c(F)cccc1-n1nccn1` [Example 16, 2-{[(3R,6R)-1-{[2-fluoro-6-(2H-1,2,3-triazol-2-yl)phenyl]carbonyl}-6-methylpiperidin-3-yl]sulfanyl}pyridine-4-carbonitrile] were, in that order, 2350 nM and 51.4 nM.
The like results for `COc1cccc(-n2nccn2)c1C(=O)N1C[C@H](Sc2cc(C#N)ccn2)CC[C@H]1C` [Example 17, 2-{[(3R,6R)-1-{[2-methoxy-6-(2H-1,2,3-triazol-2-yl)phenyl]carbonyl}-6-methylpiperidin-3-yl]sulfanyl}pyridine-4-carbonitrile] were, in that order, 5880 nM and 51.2 nM.
For the molecule `Cc1cccc(C(=O)N2C[C@H](Sc3cc(C#N)ccn3)CC[C@H]2C)c1-n1nccn1` [Example 18, 2-{[(3R,6R)-6-methyl-1-{[3-methyl-2-(2H-1,2,3-triazol-2-yl)phenyl]carbonyl}piperidin-3-yl]sulfanyl}pyridine-4-carbonitrile], the IC50 was found to be 803 nM in test [1] and 14.4 nM in test [2].
For `C[C@@H]1CC[C@@H](Sc2cc(C#N)ccn2)CN1C(=O)c1cccc(F)c1-n1nccn1` [Example 19, 2-{[(3R,6R)-1-{[3-fluoro-2-(2H-1,2,3-triazol-2-yl)phenyl]carbonyl}-6-methylpiperidin-3-yl]sulfanyl}pyridine-4-carbonitrile] the same measures were 2550 nM and 20.8 nM.
The like results for `C[C@@H]1CC[C@@H](Sc2cc(C#N)ccn2)CN1C(=O)c1ccc(Cl)cc1-n1nccn1` [Example 20, 2-{[(3R,6R)-1-{[4-chloro-2-(2H-1,2,3-triazol-2-yl)phenyl]carbonyl}-6-methylpiperidin-3-yl]sulfanyl}pyridine-4-carbonitrile] were, in that order, 1030 nM and 15.5 nM.
The like results for `C[C@@H]1CC[C@@H](Sc2cc(C#N)ccn2)CN1C(=O)c1ccc(F)cc1-n1nccn1` [Example 21, 2-{[(3R,6R)-1-{[4-fluoro-2-(2H-1,2,3-triazol-2-yl)phenyl]carbonyl}-6-methylpiperidin-3-yl]sulfanyl}pyridine-4-carbonitrile] were, in that order, 2720 nM and 26.1 nM.
Consider `Cc1ccc(C(=O)N2C[C@H](Sc3cc(C#N)ccn3)CC[C@H]2C)c(-n2nccn2)c1` [Example 22, 2-{[(3R,6R)-6-methyl-1-{[4-methyl-2-(2H-1,2,3-triazol-2-yl)phenyl]carbonyl}piperidin-3-yl]sulfanyl}pyridine-4-carbonitrile], for which the values for the IC50 in test [1] and in test [2] were 1500 nM and 49 nM, respectively.
The like results for `COc1ccc(C(=O)N2C[C@H](Sc3cc(C#N)ccn3)CC[C@H]2C)c(-n2nccn2)c1` [Example 23, 2-{[(3R,6R)-1-{[4-methoxy-2-(2H-1,2,3-triazol-2-yl)phenyl]carbonyl}-6-methylpiperidin-3-yl]sulfanyl}pyridine-4-carbonitrile] were, in that order, 7820 nM and 224 nM.
The like results for `C[C@@H]1CC[C@@H](Sc2cc(C#N)ccn2)CN1C(=O)c1cc(Br)ccc1-n1nccn1` [Example 24, 2-{[(3R,6R)-1-{[5-bromo-2-(2H-1,2,3-triazol-2-yl)phenyl]carbonyl}-6-methylpiperidin-3-yl]sulfanyl}pyridine-4-carbonitrile] were, in that order, 489 nM and 14.9 nM.
For `C[C@@H]1CC[C@@H](Sc2cc(C#N)ccn2)CN1C(=O)c1cc(Cl)ccc1-n1nccn1` [Example 25, 2-{[(3R,6R)-1-{[5-chloro-2-(2H-1,2,3-triazol-2-yl)phenyl]carbonyl}-6-methylpiperidin-3-yl]sulfanyl}pyridine-4-carbonitrile] the same measures were 4860 nM and 214 nM.
As for `C[C@@H]1CC[C@@H](Sc2cc(C#N)ccn2)CN1C(=O)c1ccccc1-c1ccccc1` [Example 28, 2-{[(3R,6R)-1-(biphenyl-2-ylcarbonyl)-6-methylpiperidin-3-yl]sulfanyl}pyridine-4-carbonitrile], the IC50 amounted to 279 nM in test [1] and 16.7 nM in test [2].

The term IC50 denotes the point on the concentration scale where inhibition reaches its midpoint.
